In BindingDB's records for doi:10.1016/j.jmb.2004.09.032 (Celera, 2004):
“And” between values parts separate entries of the source, which are not always exact repeats. Equal values may be shown once.

What was measured:
Experiment in all cases: Enzyme Assay and Determination of the Inhibition Constants
Plasminogen = Plasminogen (Homo sapiens, UniProt P00747); details: pH 7.4; 22 °C
Description: (§1) Each enzyme was assayed with a set of different concentrations of each inhibitor. […] Ki(apparent) values were calculated from enzyme velocity curves using the software package BatchKi (BioKin Ltd, Madison, WI). These apparent inhibition constants were then converted to Ki values by assuming competitive inhibition and using the formula Ki = Ki(apparent)/(1 + S/Km).

[1] = target: Tissue-type plasminogen activator (Homo sapiens, UniProt P00750)
Description: as §1

Coagulation factor X = Coagulation factor X (Homo sapiens, UniProt P00742)
Description: as §1

Prothrombin = Prothrombin (Homo sapiens, UniProt P00734)
Description: as §1

[2] = target: Urokinase-type plasminogen activator (Homo sapiens, UniProt P00749)
Description: as §1

Serine protease hepsin = Serine protease hepsin (Homo sapiens, UniProt P05981)
Description: as §1

[3] = target: T1, Urokinase-type plasminogen activator [179-431,I214M,N322A,S371A] (Homo sapiens, UniProt P00749, I214M/N322A/S371A)
T1 construct: 179-431
Description: as §1

Serine protease 1 = Serine protease 1 (Homo sapiens, UniProt P07477); details: pH 7.4; 22 °C
Description: as §1

Tryptase beta-2 = Tryptase beta-2 (Homo sapiens, UniProt P20231)
Sequence of Tryptase beta-2 (P20231 as listed by the source): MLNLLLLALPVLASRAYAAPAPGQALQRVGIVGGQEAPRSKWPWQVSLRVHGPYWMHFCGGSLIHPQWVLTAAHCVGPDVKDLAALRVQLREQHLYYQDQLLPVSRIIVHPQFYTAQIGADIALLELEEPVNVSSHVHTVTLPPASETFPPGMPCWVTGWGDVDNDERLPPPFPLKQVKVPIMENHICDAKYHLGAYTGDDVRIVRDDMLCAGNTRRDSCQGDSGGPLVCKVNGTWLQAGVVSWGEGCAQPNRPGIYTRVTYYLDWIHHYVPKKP
Description: as §1

Sequence of Serine protease 1 (P07477 whole entry): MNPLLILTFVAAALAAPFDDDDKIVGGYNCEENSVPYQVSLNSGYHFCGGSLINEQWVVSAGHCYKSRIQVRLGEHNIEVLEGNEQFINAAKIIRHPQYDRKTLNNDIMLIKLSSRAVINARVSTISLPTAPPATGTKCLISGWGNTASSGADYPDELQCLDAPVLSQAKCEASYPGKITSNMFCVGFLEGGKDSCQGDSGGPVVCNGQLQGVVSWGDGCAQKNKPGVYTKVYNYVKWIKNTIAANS
Sequence of Coagulation factor X (P00742 41-179 limits assumed): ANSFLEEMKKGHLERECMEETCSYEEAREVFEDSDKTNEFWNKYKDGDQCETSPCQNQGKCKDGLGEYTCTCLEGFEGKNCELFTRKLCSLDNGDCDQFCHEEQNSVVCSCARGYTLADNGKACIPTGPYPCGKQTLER
Sequence of Coagulation factor X (P00742 235-488 limits assumed): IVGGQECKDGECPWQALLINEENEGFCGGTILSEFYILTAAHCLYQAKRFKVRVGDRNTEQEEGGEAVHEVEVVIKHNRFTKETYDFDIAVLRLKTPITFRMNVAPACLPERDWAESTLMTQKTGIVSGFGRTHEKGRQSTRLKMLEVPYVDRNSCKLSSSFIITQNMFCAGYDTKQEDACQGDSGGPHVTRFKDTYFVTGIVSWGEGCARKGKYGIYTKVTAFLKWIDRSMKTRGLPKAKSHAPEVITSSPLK
Sequence of Plasminogen (P00747 97-580 limits assumed): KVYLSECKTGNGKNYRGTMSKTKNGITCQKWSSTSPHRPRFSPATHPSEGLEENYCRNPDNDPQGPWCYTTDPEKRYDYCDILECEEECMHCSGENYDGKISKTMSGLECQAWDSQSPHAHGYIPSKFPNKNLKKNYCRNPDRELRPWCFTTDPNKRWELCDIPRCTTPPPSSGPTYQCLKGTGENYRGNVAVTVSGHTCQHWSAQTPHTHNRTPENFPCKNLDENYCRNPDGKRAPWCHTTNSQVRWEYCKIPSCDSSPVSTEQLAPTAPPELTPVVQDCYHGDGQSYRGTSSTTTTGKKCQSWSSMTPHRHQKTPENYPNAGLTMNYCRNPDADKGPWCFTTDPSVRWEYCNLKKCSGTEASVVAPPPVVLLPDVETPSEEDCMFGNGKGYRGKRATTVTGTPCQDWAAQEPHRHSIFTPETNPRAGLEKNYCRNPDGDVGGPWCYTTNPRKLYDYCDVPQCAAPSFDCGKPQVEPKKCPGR
Sequence of Plasminogen (P00747 581-810 limits assumed): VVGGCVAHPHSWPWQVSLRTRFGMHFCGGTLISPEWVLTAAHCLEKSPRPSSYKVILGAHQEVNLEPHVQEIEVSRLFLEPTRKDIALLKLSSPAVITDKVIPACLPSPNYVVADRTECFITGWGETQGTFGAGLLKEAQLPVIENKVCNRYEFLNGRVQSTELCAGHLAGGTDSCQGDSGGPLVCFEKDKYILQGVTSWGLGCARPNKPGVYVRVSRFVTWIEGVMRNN
Sequence of Serine protease hepsin (P05981 1-162 limits assumed): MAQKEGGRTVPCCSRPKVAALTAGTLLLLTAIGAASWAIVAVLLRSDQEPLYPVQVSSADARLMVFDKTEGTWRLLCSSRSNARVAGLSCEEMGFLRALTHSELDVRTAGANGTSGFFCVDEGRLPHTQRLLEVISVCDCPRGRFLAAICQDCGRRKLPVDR
Sequence of Serine protease hepsin (P05981 163-417 limits assumed): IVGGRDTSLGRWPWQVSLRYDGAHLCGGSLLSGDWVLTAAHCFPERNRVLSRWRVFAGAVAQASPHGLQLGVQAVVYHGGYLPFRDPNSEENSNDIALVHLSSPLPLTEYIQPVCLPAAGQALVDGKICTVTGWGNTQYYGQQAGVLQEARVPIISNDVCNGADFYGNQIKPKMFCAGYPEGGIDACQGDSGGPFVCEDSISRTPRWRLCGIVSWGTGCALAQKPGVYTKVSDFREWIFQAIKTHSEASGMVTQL
Sequence of Tissue-type plasminogen activator (P00750 whole entry): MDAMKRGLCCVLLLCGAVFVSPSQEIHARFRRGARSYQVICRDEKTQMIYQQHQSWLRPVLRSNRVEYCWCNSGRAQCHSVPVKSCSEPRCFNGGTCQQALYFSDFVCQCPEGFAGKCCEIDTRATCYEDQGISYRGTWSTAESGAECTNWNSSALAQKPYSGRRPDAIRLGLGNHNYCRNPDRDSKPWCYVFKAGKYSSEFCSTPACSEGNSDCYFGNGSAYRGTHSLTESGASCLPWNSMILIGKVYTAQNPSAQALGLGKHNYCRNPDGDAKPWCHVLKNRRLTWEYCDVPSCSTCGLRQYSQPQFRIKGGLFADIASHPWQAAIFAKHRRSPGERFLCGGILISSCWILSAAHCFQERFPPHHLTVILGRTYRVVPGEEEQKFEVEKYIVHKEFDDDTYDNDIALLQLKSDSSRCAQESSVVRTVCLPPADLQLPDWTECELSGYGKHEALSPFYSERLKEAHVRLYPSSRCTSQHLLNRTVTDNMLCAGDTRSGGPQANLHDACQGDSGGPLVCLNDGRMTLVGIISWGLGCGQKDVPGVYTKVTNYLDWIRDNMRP

SMILES	Ki (Plasminogen)	Ki [1]	Ki (Coagulation factor X)	Ki (Prothrombin)	Ki [2]	Ki (Serine protease hepsin)	Ki [3]	Ki (Serine protease 1)	Ki (Tryptase beta-2)
Nc1nc2cc(NC(=O)c3cc4ccccc4cc3O)ccc2[nH]1 [2-amino-5-[(3-hydroxynaphthalene-2-)amido]-1H-1,3-benzodiazol-3-ium]	> 75 µM	> 450 µM	200 µM	> 450 µM	4.6 µM and 4.5 µM	2.1 µM	42 µM	37 µM	
C[C@H]1CCCC[C@@H]1Oc1cccc(-c2nc3cc(C(=N)N)c(F)cc3[nH]2)c1O [2-{5-[amino(iminiumyl)methyl]-6-fluoro-1H-1,3-benzodiazol-2-yl}-6-{[(1S,2S)-2-methylcyclohexyl]oxy}benzen-1-olate]									2.5 µM
CC(C)COc1cccc(-c2nc3ccc(C(=N)N)cc3[nH]2)c1O [2-{5-[amino(iminiumyl)methyl]-1H-1,3-benzodiazol-2-yl}-6-(2-methylpropoxy)benzen-1-olate]					0.19 µM		3.9 µM		
Nc1nc2cc(NC(=O)c3cccc(-c4ccccc4)c3O)ccc2[nH]1 [2-amino-5-[(2-hydroxy-3-phenylbenzene)amido]-1H-1,3-benzodiazol-3-ium]	> 75 µM	270 µM	> 450 µM	> 450 µM	4.1 µM	> 75 µM		130 µM	
NC(N)=Nc1ccc(NC(=O)c2cc3ccccc3c(O)c2O)cn1 [[amino({5-[(3,4-dihydroxynaphthalene-2-)amido]pyridin-2-yl}amino)methylidene]azanium]	4 µM		80 µM	> 450 µM	0.017 µM and 0.041 µM		0.28 µM	42 µM	
N=C(N)Nc1ccc(NC(=O)c2cc3ccccc3cc2O)cn1 [[amino({5-[(3-hydroxynaphthalene-2-)amido]pyridin-2-yl}amino)methylidene]azanium]	130 µM	180 µM	70 µM	54 µM	0.1 µM and 0.2 µM		1.1 µM	9.6 µM	0.87 µM
NC(N)=Nc1ccc(NC(=O)c2cc3ccccc3cc2O)cc1 [[amino({4-[(3-hydroxynaphthalene-2-)amido]phenyl}amino)methylidene]azanium]	130 µM	670 µM	> 450 µM	290 µM	0.62 µM and 0.39 µM	2.6 µM	10 µM	16 µM	2 µM
N=C(N)c1cc2nc(-c3cccc(-c4ccccc4)c3O)[nH]c2cc1F [2-{5-[amino(iminiumyl)methyl]-6-fluoro-1H-1,3-benzodiazol-2-yl}-6-phenylbenzen-1-olate]					0.37 µM		39 µM	10 µM	4.7 µM

The next lines start with the values.

Ki (Plasminogen)	Ki [1]	Ki (Coagulation factor X)	Ki (Prothrombin)	Ki [2]	Ki (Serine protease hepsin)	Ki [3]	Ki (Serine protease 1)	Ki (Tryptase beta-2)	SMILES
				0.033 µM	0.085 µM				N=C(N)c1ccc2[nH]c(-c3cccc(-c4ccccc4)c3O)cc2c1 [CRA-8696]
				0.19 µM		4.4 µM			N=C(N)c1ccc2nc(-c3cccc(OC4CCCC4)c3O)[nH]c2c1 [CA-06]
				0.15 µM		23 µM			CC(C)COc1cccc(-c2nc3cc(F)c(C(=N)N)cc3[nH]2)c1O [CA-10]
